The record followed here is PMC2796824 (Journal of biomolecular screening, 2009).

Several values for one entry are separate records, joined by “and”; a condition that tells them apart may be missing. Identical values can stand only once.

The subject of one data set is N[C@@H](CS)C(=O)O. Kind of data set: purified protein, by the assay type.
The target of data set [1] is T1, MBP-MshC (Mycobacterium tuberculosis, UniProt P9WJM9). Description: Confirmatory assay: CGI production by fluorescence-detected HPLC. Type of data set: biochemical.
Data set [2] has as its target T1, MBP-MshC. Kind of data set: MshC coupled luminescent assay. It is filed as biochemical.
Data set [3] deals with T1, MBP-MshC. Kind of data set: Mode of inhibition of dequalinium. Type of data set: biochemical.
The target of a further data set is MBP (Escherichia coli, UniProt P0AEX9). Kind of data set: Isothermal titration calorimetry with MBP tag alone. To be noted: ITC, 1-site model, 25 °C. Type of data set: binding.
The target in data set [4] is T1, MBP-MshC. Description: Isothermal titration calorimetry with MBP-MshC. It is filed as binding. (In ITC the heat of successive injections is recorded.)
Setting [5] is: IC50, quantitative CGI-HPLC confirmatory assay.

T1 sequence (P9WJM9 whole entry, looked up): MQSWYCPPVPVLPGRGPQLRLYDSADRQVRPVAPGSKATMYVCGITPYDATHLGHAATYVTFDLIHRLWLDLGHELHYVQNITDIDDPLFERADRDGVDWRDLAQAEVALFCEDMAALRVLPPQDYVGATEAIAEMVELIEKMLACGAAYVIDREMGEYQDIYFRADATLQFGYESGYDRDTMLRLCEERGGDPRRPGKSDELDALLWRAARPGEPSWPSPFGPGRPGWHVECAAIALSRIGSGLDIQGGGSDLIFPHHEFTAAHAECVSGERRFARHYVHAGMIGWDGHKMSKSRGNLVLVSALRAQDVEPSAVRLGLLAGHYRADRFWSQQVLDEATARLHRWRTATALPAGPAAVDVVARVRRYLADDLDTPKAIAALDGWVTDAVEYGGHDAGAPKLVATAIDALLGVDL

Consider “MBP-MshC (Mycobacterium tuberculosis H37Rv)”, for which, in the data set with N[C@@H](CS)C(=O)O, the Km came out at 140 ± 40 µM and the Vmax amounted to 85 ± 7 nmol/min/mg.

As for `C[n+]1ccc(Nc2ccc(NC(=O)c3ccc(Nc4cc[n+](C)c5ccc([N+](=O)[O-])cc45)cc3[N+](=O)[O-])cc2)cc1` [compound 2], on MBP-MshC [1] (quantitative CGI-HPLC confirmatory assay), the IC50 is around 500 µM.

Take `Nc1ncnc2c1ncn2[C@@H]1O[C@H](COS(=O)(=O)NC(=O)[C@@H](N)CS)[C@@H](O)[C@H]1O` [CysSA, 5′-O-[N-(L-cysteinyl)sulfamoyl] adenosine]: the IC50 against MBP-MshC [2] came to 0.24 ± 0.001 µM.

Compound `Cc1cc(N)c2ccccc2[n+]1C` [1a, 1-methyl 4-aminoquinaldinium iodide] yielded an IC50 against MBP-MshC [1] (setting [5]) of 830 µM.

Turning to `Cc1cc(N)c2ccccc2[n+]1CCCCCCCCCC[n+]1c(C)cc(N)c2ccccc21` [compound 1, dequalinium chloride], the figures for the mode of inhibition result at MBP-MshC [3] (with respect to ATP (varied 31.3 to 4000 μM)) and at MBP-MshC [3] (with respect to GI (varied 34-1100 μM)) were “AT P-competitive inhibitor” and “synergy”, respectively. In addition, the Kd on MBP was 8.5 µM and 7 to 8.5 µM; at MBP-MshC [4], 7.1 ± 0.8 µM. The IC50 against MBP-MshC [1] (setting [5]) was 24 µM and ~24 µM.

What is called Km is the substrate concentration at which the rate is half of its maximum. As a reminder, the Vmax is the top rate of the reaction or transport when substrate is in excess. By IC50 is commonly meant the concentration needed to halve the response being measured. Higher therefore signals weaker potency. Broadly, the Kd is the equilibrium constant for the complex coming apart. Read a high Kd as a looser complex.
